Reference: publication PMC4654407 (Bioorganic & medicinal chemistry letters, 2015)
Converted amounts (≈) assume the structure as drawn.

Legend:
[1] = Solubility in sodium phosphate buffer; type: physicochemical; settings: pH 7.4
[2] = molecular target: T1, recombinant purified human sEH (Homo sapiens, UniProt P34913); assay: sEH inhibition, kinetic fluorescent assay with CMNPC substrate; type: biochemical
T1 sequence (P34913 1-555): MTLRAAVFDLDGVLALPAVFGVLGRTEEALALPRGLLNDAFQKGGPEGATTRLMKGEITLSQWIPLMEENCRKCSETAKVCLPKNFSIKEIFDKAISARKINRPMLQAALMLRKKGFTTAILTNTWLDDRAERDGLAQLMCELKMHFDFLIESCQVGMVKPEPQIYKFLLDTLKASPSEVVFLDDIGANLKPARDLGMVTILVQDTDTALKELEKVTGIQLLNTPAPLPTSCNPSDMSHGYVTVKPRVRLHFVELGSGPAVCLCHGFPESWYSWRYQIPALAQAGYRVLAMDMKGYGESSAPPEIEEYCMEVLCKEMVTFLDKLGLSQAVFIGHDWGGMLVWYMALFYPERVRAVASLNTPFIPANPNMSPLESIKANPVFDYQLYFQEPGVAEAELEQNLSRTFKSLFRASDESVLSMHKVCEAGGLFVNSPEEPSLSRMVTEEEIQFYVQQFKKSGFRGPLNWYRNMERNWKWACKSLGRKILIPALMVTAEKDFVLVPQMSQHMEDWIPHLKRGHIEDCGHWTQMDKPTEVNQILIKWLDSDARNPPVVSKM

SMILES	solubility [1]	IC50 [2]	fold less active than corresponding 1,3-disubstituted urea ([2]; relative to 3f)	fold less potent ([2]; relative to 3d)
Cc1ccc(-c2cc(CNC(=O)NCC34CC5CC(CC(C5)C3)C4)no2)cc1 [3a]	75 to 100 µM (≈ 28.5 to 38 µg/mL)	–	–	–
COc1ccc(-c2cc(CNC(=O)NCC34CC5CC(CC(C5)C3)C4)no2)cc1 [3b]	100 to 125 µM (≈ 39.6 to 49.4 µg/mL)	–	–	–
O=C(NCc1cc(-c2ccco2)on1)NCC12CC3CC(CC(C3)C1)C2 [3c]	75 to 100 µM (≈ 26.7 to 35.5 µg/mL)	–	–	–
Cc1cc(CNC(=O)NCC23CC4CC(CC(C4)C2)C3)on1 [3d]	450 to 475 µM (≈ 137 to 144 µg/mL)	9.9 ± 2.9 nM	–	–
CC(C)c1cc(CNC(=O)NCC23CC4CC(CC(C4)C2)C3)on1 [3f]	125 to 150 µM (≈ 41.4 to 49.7 µg/mL)	–	–	–
O=C(NCc1cc(-c2cccc(F)c2)no1)NCC12CC3CC(CC(C3)C1)C2 [3g]	75 to 100 µM (≈ 28.8 to 38.3 µg/mL)	13.7 ± 3 nM	–	–
CC(C)c1cc(C2CCCN2C(=O)NCC23CC4CC(CC(C4)C2)C3)no1 (centres unmarked) [3k]	–	–	> 5 fold	–
Cc1ccc(-c2cc(CNC(=O)NC34CC5CC(C)(CC(C)(C5)C3)C4)no2)cc1 [4a]	125 to 150 µM (≈ 49.2 to 59 µg/mL)	28.8 ± 4.5 nM	–	–
COc1ccc(-c2cc(CNC(=O)NC34CC5CC(C)(CC(C)(C5)C3)C4)no2)cc1 [4b]	25 to 50 µM (≈ 10.2 to 20.5 µg/mL)	18 ± 2.9 nM	–	–
CC12CC3CC(C)(C1)CC(NC(=O)NCc1cc(-c4ccco4)on1)(C3)C2 [4c]	75 to 100 µM (≈ 27.7 to 36.9 µg/mL)	4.8 ± 0.6 nM	–	–
Cc1cc(CNC(=O)NC23CC4CC(C)(CC(C)(C4)C2)C3)on1 [4d]	200 to 225 µM (≈ 63.5 to 71.4 µg/mL)	111 ± 10.3 nM	–	10 fold
CC12CC3CC(C)(C1)CC(NC(=O)NCc1cc(-c4cccc(F)c4)no1)(C3)C2 [4g]	75 to 100 µM (≈ 29.8 to 39.7 µg/mL)	14.2 ± 2.5 nM	–	–
